From PMC4277729 (Bioorganic & medicinal chemistry letters, 2014)
Values after ≈ are worked out from the molar mass of the structure shown. Blank lines part the entries; values can stand above or below the compound they belong to.

How the values were obtained:
chicken sEH (chxEH) = chicken sEH (chxEH) (Gallus gallus, UniProt Q45QT1); assay: chxEH inhibition, fluorescent substrate PHOME; type: biochemical
[1] = solubility by turbidity measurement at 600 nm; type: physicochemical; settings: sodium phosphate buffer, pH 7.4
chxEH [2] = target: T1, chxEH (Gallus gallus, UniProt Q45QT1); assay: FRET-based competitive displacement assay with reporter ligand ACPU
chxEH [3] = target: T1, chxEH; assay: kinetic constants of chxEH for epoxy-fatty acid substrate; type: biochemical, chicken; settings: chxEH's best substrate
[4] = substrate of recombinant purified chicken sEH

SMILES: CCC(=O)N1CCC(NC(=O)Nc2ccc(OC(F)(F)F)cc2)CC1 [TPPU]
inhibition of chxEH (chicken sEH (chxEH); inhibitor 100 nM, chxEH 1.4 nM, primary screen, endpoint mode): 15%

Km (chicken sEH (chxEH); [4]): 1.5 ± 0.3 µM | Vmax (chicken sEH (chxEH); [4]): 60 ± 4 nmol/min/mg
SMILES: COc1ccc2cc(C(C#N)OC(=O)CC3OC3c3ccccc3)ccc2c1 (centres unmarked) [PHOME, (3-phenyl-oxiranyl)-acetic acid cyano-(6-methoxy-naphthalen-2-yl)-methyl ester]

SMILES: O=C(O)CCCCCCCCCCCNC(=O)NC12CC3CC(CC(C3)C1)C2 [AUDA]
IC50 (chicken sEH (chxEH)): 12 nM | solubility [1]: 37.5 to 50 µM (≈ 14.7 to 19.6 µg/mL)

Kd (chxEH [2]): 0.283 nM
SMILES: O=C(NC1CCN(C(=O)Cc2cc(=O)oc3cc(O)ccc23)CC1)NC12CC3CC(CC(C3)C1)C2 [ACPU]

Km (chxEH [3]): 12 ± 3 µM | Vmax (chxEH [3]): 728 ± 97 nmol/min/mg
SMILES: CCC=CCC1OC1CC=CCC=CCC=CCC=CCCC(=O)O (centres unmarked) [16,17-epoxy-docosapentaenoic acid]
